What was measured:
[1] = biological target: T1, 5-hydroxytryptamine receptor 1A (Homo sapiens) (UniProt P08908); test: Agonist activity at human 5HT1A receptor expressed in CHO cells by [35S]GTPgammaS binding assay; format: functional, cell-based
T1 sequence (whole entry): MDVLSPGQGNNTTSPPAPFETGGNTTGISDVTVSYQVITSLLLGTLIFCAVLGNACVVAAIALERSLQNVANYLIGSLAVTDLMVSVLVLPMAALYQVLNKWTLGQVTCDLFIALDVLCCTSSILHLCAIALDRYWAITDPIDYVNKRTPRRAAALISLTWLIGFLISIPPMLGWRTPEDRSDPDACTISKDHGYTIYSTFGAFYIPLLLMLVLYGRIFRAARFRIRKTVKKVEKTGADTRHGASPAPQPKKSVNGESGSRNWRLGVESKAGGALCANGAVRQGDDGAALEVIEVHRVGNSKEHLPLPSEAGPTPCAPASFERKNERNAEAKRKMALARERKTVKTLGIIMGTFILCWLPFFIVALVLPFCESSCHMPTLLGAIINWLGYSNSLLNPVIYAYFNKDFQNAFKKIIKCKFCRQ

[2] = biological target: T2, 5-hydroxytryptamine receptor 1A (Homo sapiens, UniProt P08908); test: Displacement of [3H][…] from human 5HT1A receptor expressed in CHO cells; format: cell-based
T2 sequence (P08908 whole entry): T1 sequence (whole entry)

[3] = biological target: T2, 5-hydroxytryptamine receptor 1A; test: Agonist activity at human 5HT1A receptor expressed in CHO cells assessed as inhibition of forskolin-induced adenylate cyclase activity; format: functional, cell-based
[4] = biological target: Sodium-dependent serotonin transporter (Homo sapiens, UniProt P31645); test: Displacement of labeled paroxetine from 5-HT transporter
Chain of Sodium-dependent serotonin transporter (P31645 whole entry): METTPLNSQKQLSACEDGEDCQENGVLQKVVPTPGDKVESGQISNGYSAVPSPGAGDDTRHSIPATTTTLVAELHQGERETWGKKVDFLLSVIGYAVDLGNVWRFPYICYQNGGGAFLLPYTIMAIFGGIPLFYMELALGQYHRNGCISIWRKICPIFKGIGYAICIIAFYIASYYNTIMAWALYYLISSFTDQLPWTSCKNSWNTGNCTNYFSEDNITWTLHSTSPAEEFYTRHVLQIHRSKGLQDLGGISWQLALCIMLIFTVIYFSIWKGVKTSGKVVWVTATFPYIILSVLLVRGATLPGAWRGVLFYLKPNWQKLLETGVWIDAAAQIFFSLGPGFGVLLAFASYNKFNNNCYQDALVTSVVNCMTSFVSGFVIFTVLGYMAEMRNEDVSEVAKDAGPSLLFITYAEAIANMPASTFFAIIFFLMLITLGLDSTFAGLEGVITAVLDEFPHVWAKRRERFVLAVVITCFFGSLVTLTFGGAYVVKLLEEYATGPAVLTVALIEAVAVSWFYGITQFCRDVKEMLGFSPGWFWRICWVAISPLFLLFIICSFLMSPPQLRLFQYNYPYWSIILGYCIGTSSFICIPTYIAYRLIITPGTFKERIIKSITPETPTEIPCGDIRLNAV

Compound | Emax [1] [%] | Ki [2] [nM] | IC50 [3] [nM] | Ki [4] [nM] | EC50 [3] [nM]
O=C1NCc2ccc3c(c21)CC(N(CCCc1c[nH]c2ccc(F)cc12)CC1CC1)CO3 (stereo in doubt; (+)-46) [listing 1 of 2 here] | 84 | – | – | – | –
CC(C)CN(CCCc1c[nH]c2ccc(F)cc12)C1COc2ccc3c(c2C1)C(=O)NCC3 (racemic) | – | 927 | – | 184 | –
O=C1NCc2ccc3c(c21)CC(N(CCCc1c[nH]c2ccc(F)cc12)CC1CC1)CO3 (racemic) [listing 1 of 2 here] | 0 | – | – | – | –
N#Cc1ccc2[nH]cc(CCCCN(CC3CC3)C3COc4ccc5c(c4C3)C(=O)NC5)c2c1 (single isomer, unassigned; (+)) [listing 1 of 2 here] | 100 | – | – | – | –
O=C1NCc2ccc3c(c21)CC(N(CCCc1c[nH]c2ccc(F)cc12)C1CCC1)CO3 (racemic) | – | 101 | – | 63 | 350
O=C1NCCc2ccc3c(c21)CC(N(CCCc1c[nH]c2ccc(F)cc12)C(=O)c1ccccc1)CO3 (racemic) | – | 1220 | – | 671 | –
O=C1NCc2ccc3c(c21)CC(N(CCCc1c[nH]c2ccc(F)cc12)CC1CC1)CO3 (single isomer, unassigned; (-)) [listing 2 of 2 here] | 0 | – | – | – | –
O=C1NCCc2cc(F)c3c(c21)CC(N(CCCc1c[nH]c2ccc(F)cc12)CC1CC1)CO3 (racemic) | 62 | 50 | – | 112 | 101
CC(C)CN(CCCc1c[nH]c2ccc(F)cc12)C1COc2ccc3c(c2C1)C(=O)NC3 (racemic) | – | – | – | 617 | –
O=C1NCc2ccc3c(c21)CC(N(CCCCc1c[nH]c2ccc(F)cc12)CC1CC1)CO3 (racemic) | 87 | 19 | – | 139 | 49
N#Cc1ccc2[nH]cc(CCCCN(CC3CC3)C3COc4ccc5c(c4C3)C(=O)NC5)c2c1 (single isomer, unassigned; (-)) [listing 2 of 2 here] | 0 | – | – | – | –
O=C1NCCc2ccc3c(c21)CC(N(CCCc1c[nH]c2ccc(F)cc12)C1CCC1)CO3 (racemic) | 77 | 95 | – | 28 | 54
CCCN(CCCc1c[nH]c2ccc(F)cc12)C1COc2ccc3c(c2C1)C(=O)NCC3 (racemic) | 100 | 13 | – | 61 | 34
O=C1NCc2ccc3c(c21)CC(N(CCCc1c[nH]c2ccc(F)cc12)C(=O)c1ccccc1)CO3 (racemic) | 96 | 85 | – | 31 | 436
CCN(CCCc1c[nH]c2ccc(F)cc12)C1COc2ccc3c(c2C1)C(=O)NCC3 (racemic) | 97 | 6 | – | 30 | 9
N#Cc1ccc2[nH]cc(CCCCN(CC3CC3)C3COc4ccc5c(c4C3)C(=O)NC5)c2c1 (racemic) [listing 2 of 2 here] | 0 | – | – | – | –
O=C1NCCc2ccc3c(c21)CC(N(CCCc1c[nH]c2ccc(F)cc12)CCC(F)(F)F)CO3 (racemic) | – | 966 | – | 340 | –
O=C1NCc2ccc3c(c21)CC(N(CCCc1c[nH]c2ccc(F)cc12)CC1CCCCC1)CO3 (racemic) | – | – | – | 1240 | –
O=C1NCCc2cc(F)c3c(c21)CC(NCCCc1c[nH]c2ccc(F)cc12)CO3 (racemic) | 98 | 6 | – | 27 | 4

The remaining lines, values ahead:

Emax [1] [%] | Ki [2] [nM] | IC50 [3] [nM] | Ki [4] [nM] | EC50 [3] [nM] | Compound
– | 10 | 203 | 17 | – | N#Cc1ccc2[nH]cc(CCCCN(CC3CC3)C3COc4ccc5c(c4C3)C(=O)NC5)c2c1 (single isomer, unassigned; (-)) [listing 1 of 2 here]
87 | 44 | – | 10 | 25 | O=C1NCCc2ccc3c(c21)CC(NCCCc1c[nH]c2ccc(F)cc12)CO3 (racemic)
– | 8 | 320 | 6 | – | O=C1NCc2ccc3c(c21)CC(N(CCCc1c[nH]c2ccc(F)cc12)CC1CC1)CO3 (single isomer, unassigned; (-)) [listing 1 of 2 here]
– | 3 | – | 5 | 24 | O=C1NCc2ccc3c(c21)CC(N(CCCc1c[nH]c2ccc(F)cc12)CC1CC1)CO3 (stereo in doubt; (+)-46) [listing 2 of 2 here]
– | 31 | – | 12 | 19 | N#Cc1ccc2[nH]cc(CCCCN(CC3CC3)C3COc4ccc5c(c4C3)C(=O)NC5)c2c1 (single isomer, unassigned; (+)) [listing 2 of 2 here]
91 | 19 | – | 26 | 36 | O=C1NCCc2ccc3c(c21)CC(N(CCCc1c[nH]c2ccc(F)cc12)CC1CC1)CO3 (racemic)
100 | 24 | – | 8 | 62 | O=C1NCc2ccc3c(c21)CC(NCCCc1c[nH]c2ccc(F)cc12)CO3 (racemic)
91 | 36 | – | 13 | 22 | N#Cc1ccc2[nH]cc(CCCNC3COc4ccc5c(c4C3)C(=O)NC5)c2c1 (racemic)
– | 4 | 63 | 25 | – | N#Cc1ccc2[nH]cc(CCCCN(CC3CC3)C3COc4ccc5c(c4C3)C(=O)NC5)c2c1 (racemic) [listing 1 of 2 here]
80 | 22 | – | 9 | 75 | CN(CCCc1c[nH]c2ccc(F)cc12)C1COc2ccc3c(c2C1)C(=O)NC3 (racemic)
94 | 129 | – | 8 | 252 | CC(C)N(CCCc1c[nH]c2ccc(F)cc12)C1COc2ccc3c(c2C1)C(=O)NCC3 (racemic)
92 | 4 | – | 15 | 10 | CCN(CCCc1c[nH]c2ccc(F)cc12)C1COc2c(F)cc3c(c2C1)C(=O)NCC3 (racemic)
99 | 23 | – | 17 | 26 | CN(CCCc1c[nH]c2ccc(F)cc12)C1COc2ccc3c(c2C1)C(=O)NCC3 (racemic)
78 | 2 | – | 8 | 28 | CCN(CCCc1c[nH]c2ccc(F)cc12)C1COc2ccc3c(c2C1)C(=O)NC3 (racemic)
– | 6 | 223 | 15 | – | O=C1NCc2ccc3c(c21)CC(N(CCCc1c[nH]c2ccc(F)cc12)CC1CC1)CO3 (racemic) [listing 2 of 2 here]
96 | 22 | – | 20 | 284 | O=C1NCc2ccc3c(c21)CC(NCCCCc1c[nH]c2ccc(F)cc12)CO3 (racemic)

Source: ChEMBL document CHEMBL1153150, “Synthesis and structure-activity relationship of novel lactam-fused chroman derivatives having dual affinity at the 5-HT(1A) receptor and the serotonin transporter” (Bioorg Med Chem Lett, 2010)
